From patent publication US5661129A, “Organic nitrates containing a disulfide group as cardiovascular agents” (Schwarz Pharma AG, priority 1993, dated 1997)

Legend:
[1] = continuous intake of high doses; classical organic nitrates and EP compounds; cited from earlier work
[2] = tested on: isolated rat aortic rings; test: Vasorelaxation in vitro on isolated rat aortic rings precontracted with phenylephrine; type: cell-based; conditions: rat aortic rings precontracted with 2×10^-7 mol/l phenylephrine; cumulative addition; n = 3-6; read-out: EC50 (concentration which leads to a 50% relaxation of the precontracted vascular ring)
From the text: The vasorelaxant effect of the compounds of the general formula I was investigated in vitro on isolated rat aortic rings. For this purpose, rats were anaesthetized and then the thoracic aorta was removed, freed of adipose and adventitious tissue and divided into annular segments about 5 mm wide. The aortic rings were transferred into temperature-controlled baths containing Tyrodes' solution through which 5% CO2 /95% O2 was passed, and were subjected to a preload of 2 g. While continuously recording the change in force, the vascular rings were precontracted after equilibration with 2×10^-7 mol/l phenylephrine for 90 minutes. After a stable contraction level was reached, the nitrato compounds were cumulatively added to the vessel bath liquid, the next higher concentration in each case being added only after a stable relaxation level had been reached. The concentration of the particular compound which leads to a 50% relaxation of the precontracted vascular ring (EC50) was found from the resulting concentration-effect plots. Table 1 contains the EC50 values found in this way for selected exemplary compounds.

[3] = tested on: arterial, central venous and pulmonary artery blood pressure in a conscious dog; test: Effects on blood pressure in a conscious dog; type: in vivo; design: unit not given here; conditions: intravenous, 13.4 μg/kg disulphide compounds
Protocol: The SAP was measured using a tip catheter transducer inserted into the aorta via the femoral artery, and the CVP and the PAP were measured using a Swan-Ganz catheter which was inserted via the left jugular vein and whose catheter tips were advanced as far as the pulmonary artery and the right atrium respectively and through whose lumens the particular pressure was passed to Statham® pressure transducers. To quantify the lowering of blood pressure elicited by the compound according to the invention, the areas under the curves (AUC) of the recorded changes in blood pressure were determined. Table 2 contains the AUC values for the relevant lowering of blood pressure after intravenous administration of 13.4 μg/kg of the disulphide compounds according to the invention and after intravenous administration of 26.8 μg/kg isosorbide 5-mononitrate (5-ISMN).

Structure (SMILES) | nitrate tolerance (attenuation of the effect) [1] | EC50 [2] [µM] | AUC (CVP), lowering of central venous blood pressure [3] | AUC (PAP), lowering of pulmonary artery blood pressure [3] | AUC (SAP), lowering of systolic arterial blood pressure [3]
O=[N+]([O-])O[C@@H]1CO[C@H]2[C@@H]1OC[C@@H]2O [Example 5-ISMN, isosorbide 5-mononitrate, reference compound] | distinct attenuation of the effect, nitrate tolerance | – | – | – | –
CC(C)(C)OC(=O)[C@H](CSSC[C@H](NC(=O)C(C)(C)CO[N+](=O)[O-])C(=O)OC(C)(C)C)NC(=O)C(C)(C)CO[N+](=O)[O-] [N,N'-di(3-nitratopivaloyl)-L-cystine di-tert.-butyl ester] | – | 59 | – | – | –
CCOC(=O)[C@H](CSSC[C@H](NC(=O)C(C)(C)CO[N+](=O)[O-])C(=O)OCC)NC(=O)C(C)(C)CO[N+](=O)[O-] [N,N'-di(3-nitratopivaloyl)-L-cystine diethyl ester] | – | 1.5 | 85.7 | 12.0 | 94.1
CNC(=O)[C@H](CSSC[C@H](NC(=O)C(C)(C)CO[N+](=O)[O-])C(=O)NC)NC(=O)C(C)(C)CO[N+](=O)[O-] [N,N'-di(3-nitratopivaloyl)-L-cystine-di(N-methylamide)] | – | 24 | 33.7 | 3.5 | 41.9
CC(C)(CO[N+](=O)[O-])C(=O)N[C@@H](CSSC[C@H](NC(=O)C(C)(C)CO[N+](=O)[O-])C(=O)O)C(=O)O [N,N'-di(3-nitratopivaloyl)-L-cystine] | – | 120 | 67.9 | 2.7 | 17.3
CC(C)(CO[N+](=O)[O-])C(=O)N[C@@H](CSSC[C@H](NC(=O)C(C)(C)CO[N+](=O)[O-])C(N)=O)C(N)=O [N,N'-di(3-nitratopivaloyl)-L-cystinediamide] | – | 30 | 46.9 | 28.1 | 55.3
CC(C)(CO[N+](=O)[O-])C(=O)N[C@@H](CSSC[C@H](NC(=O)C(C)(C)CO[N+](=O)[O-])C(=O)N1CCCCC1)C(=O)N1CCCCC1 [N,N'-di(3-nitratopivaloyl)-L-cystinedipiperidide] | – | 100 | 36.9 | 18.5 | 10.4
O=[N+]([O-])OCC(CO[N+](=O)[O-])O[N+](=O)[O-] [glycerol trinitrate] | distinct attenuation of the effect, nitrate tolerance | – | – | – | –
